Test [1] has as its target T1, PKG-1α (Homo sapiens, UniProt Q13976).
T1 sequence (Q13976 2-671): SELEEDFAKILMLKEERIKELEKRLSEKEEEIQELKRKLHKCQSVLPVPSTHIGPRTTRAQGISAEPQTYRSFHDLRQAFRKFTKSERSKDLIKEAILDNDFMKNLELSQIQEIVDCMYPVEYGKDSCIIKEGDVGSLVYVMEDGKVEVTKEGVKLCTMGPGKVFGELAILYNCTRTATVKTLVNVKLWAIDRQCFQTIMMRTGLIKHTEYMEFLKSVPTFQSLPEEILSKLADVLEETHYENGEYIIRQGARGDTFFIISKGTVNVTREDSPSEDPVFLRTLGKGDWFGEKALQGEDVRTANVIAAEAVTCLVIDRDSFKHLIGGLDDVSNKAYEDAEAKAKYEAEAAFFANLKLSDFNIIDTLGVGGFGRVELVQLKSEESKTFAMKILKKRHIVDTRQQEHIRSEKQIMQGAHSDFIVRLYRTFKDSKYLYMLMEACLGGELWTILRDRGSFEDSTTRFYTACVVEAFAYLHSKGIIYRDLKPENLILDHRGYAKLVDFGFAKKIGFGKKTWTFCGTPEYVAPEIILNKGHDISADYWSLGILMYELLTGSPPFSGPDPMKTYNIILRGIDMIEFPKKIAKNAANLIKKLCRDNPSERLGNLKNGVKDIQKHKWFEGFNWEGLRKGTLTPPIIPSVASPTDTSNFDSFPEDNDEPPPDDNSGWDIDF
The test can be described thus: PKG activity in transfected PASMC. It counts as cell-based, lamb. To be noted: PASMC transfected with WT-PKG-1α; SIN-1 500 μM, 48 h. The arrangement: an expression plasmid containing a full length WT-PKG-1α cDNA; expressed in transfected cells; host or cells: primary pulmonary artery smooth muscle cells (PASMC) from 4-week old lambs. The protocol:
Therefore, the effect of these events were investigated in PASMC transiently transfected with expression plasmids containing WT- and Y247F-PKG-1α. The effect of nitration on pulmonary arterial smooth muscle cell (PASMC) growth and metabolism was determined. PASMC were transiently transfected with expression plasmids containing WT-PKG-1α, Y247F-PKG-1α or pDEST40 (as a control) for 20 h. Cells were then exposed or not to SIN-1 (500 μM, 48 h) and the effect on PKG protein levels (FIG. 2A) and activity determined (FIG. 2B).
Total PKG activity was determined using a non-radioactive immunoassay in cell lysates, according to the manufacturer's directions. Briefly, protein samples were diluted in kinase reaction buffer containing Mg^2+ and ATP (125 μM) in the presence or absence of 8-Br cGMP (10 μM) and incubated in a 96 well plate pre-coated with a PKG substrate containing threonine residues phosphorylated by PKG.
After incubation for 30 min at 30° C. to allow the phosphorylation of the bound substrate, an HRP conjugated anti-phosphothreonine specific antibody was added to convert a chromogenic substrate to a colorimetric substrate that was subsequently read spectrophotometrically at 450 nm. The change in absorbance reflected the relative activity of PKG in the sample. […] The kinetic constants were determined using nonlinear regression (curve fit) analysis (GraphPad Prism Software Inc.).

Test [2] relates to PKG-1α. The test can be described thus: PKG-1α nitration (IP, 3-NT immunoblot) in transfected HEK-293T cells. The test is classed as cell-based, human. The note with it: SIN-1 500 μM, 30 min. The protocol: Cells were homogenized in 3× weight/volume of IP buffer (25 mM Hepes, pH 7.5, 150 mM NaCl, 1% NP-40, 10 mM MgCl2, 1 mM EDTA, 2% glycerol, supplemented with protease inhibitor). The homogenates were then centrifuged at 20,000 g at 4° C. for 20 min, the supernatant was collected, and the protein concentration was quantified by the Bio-Rad DC Protein Assay. To 1000 μg of total protein, 4 μg of antibody against PKG-1α was added; the volume was brought to 1 ml with IP buffer, and the mixture was incubated at 4° C. overnight. To precipitate the bound protein, 30 μl of protein G plus agarose suspension (EMD biosciences, Inc., San Diego, Calif.) was added, and the samples were incubated for 2 h at 4° C. To collect the bead-bound antibody, the samples were then centrifuged at 2000 g for 5 min at 4° C., the supernatant was removed, and the beads were washed 3× with 500 μl of IP buffer. To the samples, 30 μl of 2× Laemmli buffer was added, and the samples were boiled for 5 min and then resolved using 4-20% Tris-SDS-Hepes PAGE. The membrane was then probed for 3-nitrotyrosine (1:100 dilution), as described above. The IP efficiency was normalized by re-probing for PKG-1α (1:500).
To determine the role of tyrosine 247 and tyrosine 425 in mediating the nitration dependent inhibition of PKG-1α kinase activity, Y247F- and Y425F-PKG-1α mutants were generated and expressed in HEK-293T cells. HEK-293T cells were transiently transfected with expression plasmids containing WT-, Y247F-, or Y425F-PKG-1α for 48 h. […] Protein extracts were immunoprecipitated using an antibody raised against PKG-1α and the level of nitrated PKG-1α determined by probing the membranes with an antiserum raised against 3-NT. The blots were then stripped and re-probed for PKG-1α to normalize for the efficiency of the immunoprecipitation.
On the technique in general: In western blotting, separated proteins are transferred to a membrane and probed.

The subject of another test is 3-NT-Y247-PKG-1α. The test can be described thus: 3-NT-Y247-PKG-1α immunoblot in transfected PASMC. The note with it: SIN-1 500 μM, 30 min. The test is classed as cell-based, lamb.

For the substance “3-morpholinosydnonimine N-ethylcarbamide [SIN-1]”, on PKG-1α [1], the “cGMP dependent increase in PKG activity” value is reported as “attenuated”. For the same substance, the figures for the “nitration of PKG-1α (3-NT/PKG-1α)” value in the test with PKG-1α [2] (HEK-293T expressing WT-PKG-1α), in the test with PKG-1α [2] (HEK-293T expressing Y247F-PKG-1α) and with PKG-1α [2] (HEK-293T expressing Y425F-PKG-1α) were “significantly increased”, “no significant increases” and “no significant increases”, respectively. Further, in the test with 3-NT-Y247-PKG-1α (PASMC transfected with WT-PKG-1α), the “PKG-1α nitration (3-NT-Y247-PKG-1α levels)” value is “significantly increased”. The “nitration levels of 3-NT-Y247-PKG-1α” value with 3-NT-Y247-PKG-1α (PASMC, second construct of FIG. 4A) is “no significant increases”.

The record behind these values is US9551711B2, “Compositions and methods for detecting nitration of PKG-1α and methods of use thereof” (Augusta University Research Institute, Inc., priority 2013, dated 2017).
